Results reported in ChEMBL document CHEMBL1201862, “PubChem BioAssay data set” (2004).
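All cell lines were grown in 96-well plates and treated with compound for 48 hours. GI50 marks 50% less growth.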 Active and inactive are the calls of the source. Cut-off read from the data, not from the text of the source: active = GI50 up to about 1.1 µM and inactive = higher.

Experiments:
Experiment in all cases: NCI tumour cell line growth inhibition, 48 h
M19-MEL = tested on: M19-MEL
RXF 631 = tested on: RXF 631
SNB-78 = tested on: SNB-78
LXFL 529 = tested on: LXFL 529
HOP-18 = tested on: HOP-18
DMS-114 = tested on: DMS-114
MDA-N = tested on: MDA-N
BT-549 = tested on: BT-549
Hs-578T = tested on: Hs-578T

Measured: GI50

COC(=O)C1C(C(=O)OC)C2C(=O)C3C(C(=O)OC)C(C(=O)OC)C3C(=O)C12 (configuration not stated)
inactive: M19-MEL > 100 µM | RXF 631 > 100 µM | SNB-78 64.3 µM | LXFL 529 > 100 µM | HOP-18 > 100 µM

COc1ccc(C2C(C(=O)O)=C(CO)Oc3cc4c(cc32)OCO4)c(OC)c1 (configuration not stated)
inactive: M19-MEL 60.4 µM | DMS-114 84.5 µM | RXF 631 87.3 µM | SNB-78 > 100 µM | HOP-18 98.2 µM

C/C=N\N1C(=O)c2ccccc2C1=O
inactive: M19-MEL > 100 µM | DMS-114 > 100 µM | RXF 631 > 100 µM | SNB-78 > 100 µM | LXFL 529 > 100 µM | HOP-18 > 100 µM

CCOC(=O)Cn1c(=O)[nH]c(=O)c2c1ncn2Cc1ccccc1
inactive: M19-MEL > 100 µM | DMS-114 > 100 µM | RXF 631 > 100 µM | SNB-78 > 100 µM | LXFL 529 > 100 µM | HOP-18 > 100 µM

Cc1cc2nc3c(=O)[nH]c(=O)nc-3n(CC(O)C(O)C(O)CO)c2cc1N (configuration not stated)
inactive: M19-MEL > 100 µM | DMS-114 > 100 µM | RXF 631 > 100 µM | SNB-78 > 100 µM | LXFL 529 > 100 µM | HOP-18 > 100 µM

CC1OC(OC2C(CO)OC(O[C@H]3CC[C@@]4(C)C(=CC[C@H]5[C@@H]6C[C@@H]7O[C@]8(CC[C@@H](C)CN8)[C@@H](C)[C@@H]7[C@@]6(C)CC[C@@H]54)C3)C(O)C2O)C(O)C(O)C1O (some centres not stated)
inactive: M19-MEL > 100 µM | DMS-114 > 100 µM | SNB-78 > 100 µM | LXFL 529 > 100 µM | HOP-18 43.3 µM

COc1ccc(NC(=O)/C(=C/c2ccccc2)C(C)=O)cc1
inactive: M19-MEL 14.3 µM | DMS-114 15.2 µM | RXF 631 15.7 µM | SNB-78 15.5 µM | LXFL 529 12.4 µM | HOP-18 13.5 µM

O=[N+]([O-])c1ccc(C2=Nn3c(nnc3-c3ccccc3)SC2)o1
inactive: M19-MEL 18.5 µM | DMS-114 19.7 µM | SNB-78 20.3 µM | LXFL 529 16.1 µM | HOP-18 19.5 µM

COc1ccc(-c2c3ccccc3c(-c3ccc(OC)cc3)c3ccccc23)cc1
inactive: M19-MEL > 100 µM | DMS-114 > 100 µM | SNB-78 > 100 µM | LXFL 529 > 100 µM | HOP-18 > 100 µM

C[N+]1(C)C[C@@H](O)C[C@@H]1C(=O)[O-] [BETONICINE]
inactive: M19-MEL > 100 µM | DMS-114 > 100 µM | SNB-78 > 100 µM | LXFL 529 > 100 µM | HOP-18 > 100 µM

C=C[Si](C)(C)COC(=O)/C(C#N)=C/C=C/c1ccccc1
inactive: M19-MEL 99.5 µM | DMS-114 > 100 µM | SNB-78 > 100 µM | LXFL 529 47.5 µM | HOP-18 > 100 µM

CCCN(CCC)C(=O)Cc1c2n(c3ccccc13)Cc1ccccc1-2
inactive: M19-MEL 56.6 µM | DMS-114 23.6 µM | SNB-78 > 100 µM | LXFL 529 42.4 µM | HOP-18 > 100 µM

NC(=O)c1c(-c2ccccc2)c(-c2ccccc2)cc2c(=O)c3ccccc3[nH]c12
inactive: M19-MEL 27.6 µM | DMS-114 21.8 µM | RXF 631 27.4 µM | SNB-78 22.3 µM | LXFL 529 16.1 µM

O=C(O)[C@H](NS(=O)(=O)c1ccc(F)cc1)c1ccccc1
inactive: M19-MEL > 100 µM | DMS-114 > 100 µM | SNB-78 > 100 µM | LXFL 529 > 100 µM | HOP-18 > 100 µM

Nc1c(-c2nc3ccccc3[nH]2)sc(=S)n1-c1ccccc1
inactive: M19-MEL > 100 µM | DMS-114 96.2 µM | RXF 631 > 100 µM | SNB-78 > 100 µM | LXFL 529 95.3 µM

O=[N+]([O-])c1ccc(C2=Nn3cnnc3SC2)o1
inactive: M19-MEL 4.02 µM | DMS-114 10.8 µM | RXF 631 12.1 µM | SNB-78 22.2 µM | LXFL 529 13.6 µM

COc1cc(Nc2nc3c(N)cc(C(F)(F)F)cc3nc2-c2ccccc2)cc(OC)c1OC
inactive: M19-MEL > 82.2 µM | DMS-114 81.8 µM | RXF 631 > 44.5 µM | LXFL 529 63.5 µM | MDA-N > 80.7 µM | BT-549 35.5 µM | Hs-578T 22.3 µM | HOP-18 29.8 µM

O/N=C1/C(=C/c2ccc(OCc3ccccc3)cc2)CCCC1C(NO)c1ccc(OCc2ccccc2)cc1 (configuration not stated)
inactive: M19-MEL 22.2 µM | RXF 631 8.47 µM | LXFL 529 12.7 µM | HOP-18 33 µM

Cc1cc(N(CCC#N)CCC#N)ccc1/C(Sc1ccccc1)=C(\NC(=O)/C=C/c1ccccc1)C(=O)Sc1ccccc1
inactive: M19-MEL 3.22 µM | DMS-114 1.54 µM | RXF 631 2.79 µM | SNB-78 3.33 µM | LXFL 529 1.57 µM | HOP-18 14 µM

CC(=O)Nc1[nH]n(C)c(=O)c1-c1nnc(C)s1
inactive: DMS-114 > 100 µM | RXF 631 > 100 µM | SNB-78 > 100 µM | LXFL 529 > 100 µM

Cc1nc2ccccc2nc1CC(=O)C(=O)Nc1ccc(Cl)cc1Cl
inactive: M19-MEL > 100 µM | RXF 631 > 100 µM | SNB-78 > 100 µM | LXFL 529 > 100 µM

Cc1nc(N)nc(N)c1CCCCc1ccccc1
inactive: M19-MEL 12.4 µM | DMS-114 5.02 µM | RXF 631 11.9 µM | SNB-78 35.3 µM | LXFL 529 9.89 µM | HOP-18 42.1 µM

CC1OC(n2cc(F)c(=O)[nH]c2=O)C=CC1O (configuration not stated)
inactive: M19-MEL > 100 µM | DMS-114 > 100 µM | RXF 631 > 100 µM | SNB-78 > 100 µM | LXFL 529 > 100 µM | HOP-18 > 100 µM
